Data: PubChem BioAssay AID1996
Values after ≈ are worked out from the molar mass of the structure shown.

Settings: buffer; pH 7.4; 200.0 µM

Row | SMILES | solubility kinetic [µg/mL]
1 | CNC(=O)c1c(O)c2cccc3c2n(c1=O)CCC3 | 2.6 (≈ 10.1 µM)
2 | NC1=NC(c2ccccc2)=NC1(NC(=O)c1ccccc1)C(Cl)Cl (centres undefined) | 44.4 (≈ 123 µM)
3 | N#Cc1ccc(C(=O)Nc2cccc(NC(=O)c3ccco3)c2)c(F)c1 | 2 (≈ 5.73 µM)
4 | c1ccc(CN2CCC(Nc3ncnc4sccc34)CC2)cc1 | 46.2 (≈ 142 µM)
5 | C[C@@H](NC(=O)[C@@H]1Cc2ccccc2CN1)C(=O)NC1CCCC1 | > 47.3
6 | CCC(C)N1CCN(S(=O)(=O)c2ccc(NC(C)=O)cc2)CC1 (centres undefined) | 46.7 (≈ 138 µM)
7 | O=C(c1c[nH]c2ccccc12)C(F)(F)F | 20.2 (≈ 94.8 µM)
8 | CCCSc1ccc2nc(NC(=O)OC)[nH]c2c1 | 1.4 (≈ 5.28 µM)
9 | COc1cccc(Oc2ncnc(N)c2[N+](=O)[O-])c1 | 31 (≈ 118 µM)
10 | COC(=O)c1cn(S(=O)(=O)c2ccccc2)c2ccccc12 | 2 (≈ 6.34 µM)
11 | Cc1nc(NC(=O)CN2CC(C)OC(C)C2)sc1C(=O)N(C)C (centres undefined) | 44.2 (≈ 130 µM)
12 | COc1ccc(CN(C)C(=O)c2ccc(NS(=O)(=O)c3ccc4[nH]c(=O)[nH]c4c3)cc2)c(OC)c1OC | > 79
13 | CN1C=C/C(=C\c2cc[n+](C)c3ccccc23)c2ccccc21.[I-] | 40.1
14 | COc1ccccc1-c1c(NC(=O)C(C)C)n(C)c2ccccc2c1=O | > 52.6
15 | COc1ccc2[nH]cc(C(=O)CN3CC(C)CC(C)C3)c2c1 (centres undefined) | > 45.1
16 | CCOc1ccc(NC(=O)c2ccc(CN3CCc4ccccc4C3)cc2)cc1 | < 0.4
17 | C/C(CC(C)C)=N\Oc1nc(C)cc(C)n1 | > 33.2
18 | Cc1ccsc1-c1nc(CN2C[C@@H](C)O[C@@H](C)C2)c(C)o1 | > 46
19 | O=C(CCCN1CC=C(n2c(=O)[nH]c3ccccc32)CC1)c1ccc(F)cc1 | 33.4 (≈ 88 µM)
20 | Cc1ccc(NC(=O)C2Oc3ccccc3OC2C)cc1 (centres undefined) | 28 (≈ 98.8 µM)

Row | SMILES | solubility kinetic [µg/mL]
21 | CC(Nc1nc(=S)nc(Nc2ccc(F)cc2)[nH]1)c1ccccc1 (centres undefined) | 0.6 (≈ 1.76 µM)
22 | CC(CCc1ccccc1)NC(=O)c1ccccc1F (centres undefined) | 34.4 (≈ 127 µM)
23 | CCOc1ccc(C(=O)CCC(=O)N2CCN(c3ccccc3O)CC2)cc1 | 2.2 (≈ 5.75 µM)
24 | O=[N+]([O-])c1ccccc1S(=O)(=O)Nc1cccc2cccnc12 | 1.8 (≈ 5.47 µM)
25 | Cc1cc2cc(CNC(=O)COc3ccccc3)ccc2n1C | 5.2 (≈ 16.9 µM)
26 | COc1ccc(C(=O)N2CCCC(C(=O)O)C2)c2ccccc12 (centres undefined) | > 47
27 | CCOc1ccc(/C=C2\SC(N3CCCCC3)=NC2=O)cc1 | 1.6 (≈ 5.06 µM)
28 | CCCOc1ccc(C(C)=O)cc1Cc1c(O)[nH]c(=S)[nH]c1=O | 29.4 (≈ 87.9 µM)
29 | CC1CCCCN1S(=O)(=O)c1ccc([N+](=O)[O-])cc1 (centres undefined) | 22.5 (≈ 79.1 µM)
30 | COc1ccc2c(c1)C(=O)C(=O)N2CC1COc2ccccc2O1 (centres undefined) | 1.7 (≈ 5.23 µM)
31 | Cc1noc(C(=O)Nc2cccnc2Cl)c1Cl | > 40.8
32 | CC1SC(C)C(=O)N(CC(=O)Nc2ccc([N+](=O)[O-])cc2)C1=O (centres undefined) | 45.7 (≈ 135 µM)
33 | CC(Sc1nc(-c2ccco2)nc2c1c(=O)n(C)c(=O)n2C)C(=O)O (centres undefined) | > 54.4
34 | Cc1cccc(NC(=O)CCCC(=O)OC(C)C(=O)c2ccccc2)c1 (centres undefined) | 46.1 (≈ 130 µM)
35 | Cc1ccc(C(=O)OCC(=O)NC(C)C2CC3CCC2C3)cc1N (centres undefined) | > 49.6
36 | O=C(Nc1ccc(F)c(Cl)c1)C1CC2CCC1C2 (centres undefined) | 2.8 (≈ 10.5 µM)
37 | Cc1ccc(S(=O)(=O)CCC(=O)Nc2ccccc2C)cc1 | 21.9 (≈ 69 µM)
38 | CC(C(=O)N1CCCCCC1)N(c1ccc(Cl)cc1)S(C)(=O)=O (centres undefined) | 46.8 (≈ 130 µM)
39 | CCN(CC)S(=O)(=O)c1cc(NC(=S)NC(=O)C2CCCC2)ccc1C | 6.1 (≈ 15.3 µM)
40 | O=C(NC(c1ccccc1)c1ccccn1)c1cccc([N+](=O)[O-])c1 (centres undefined) | 38.3 (≈ 115 µM)

Row | SMILES | solubility kinetic [µg/mL]
41 | CC1=C([N+](=O)[O-])C(c2ccc(Cl)cc2)NC(=O)N1 (centres undefined) | > 40.2
42 | COC(=O)c1cccc(NC(=O)CSc2nnc(C)n2C)c1 | > 48.1
43 | O=C(Cc1ccccc1)Nc1ccc(NC(=O)c2ccco2)cc1 | 4 (≈ 12.5 µM)
44 | CC1CN(CC(=O)NCc2ccc(F)cc2)CC(C)O1 (centres undefined) | > 42.1
45 | Nc1cn(C2OC(CO)C(O)C2O)c(=O)[nH]c1=O (centres undefined) | > 38.9
46 | Cc1ccc(S(=O)(=O)/N=C/c2c(O)ccc3ccccc23)cc1 | 30.8 (≈ 94.7 µM)
47 | c1ccc(CCNc2nc(-c3ccncc3)nc3ccccc23)cc1 | 0.3 (≈ 0.919 µM)
48 | Nc1nnc(SCC(=O)c2cccc([N+](=O)[O-])c2)s1 | > 44.4
49 | Cc1nn(C)c(Oc2ccccc2)c1CCNC(=O)CCl | > 46.2
50 | CCCCCCCCNC(CO)(CO)CO | 29.5 (≈ 126 µM)
51 | NC(=O)/C(=C/c1cccnc1)NC(=O)c1ccccc1 | > 40.1
52 | CCOC(=O)CNC(=O)c1sc(NC(=O)/C=C/c2ccccc2)nc1C | 0.3 (≈ 0.803 µM)
53 | CN1C(=O)C(=O)/C(=C(/O)c2ccccc2)C1c1ccc(Br)cc1 (centres undefined) | > 55.8
54 | O=C(O)c1ccc(Cl)c(S(=O)(=O)Nc2ccc(S(=O)(=O)N3CCCC3)cc2)c1 | > 66.7
55 | Cc1cc(C(F)F)nn1CC(=O)NC1CCCC1 | > 38.6
56 | CN1CCN(c2ccc(NC(=O)c3cc4ccccc4o3)cc2)CC1 | 19.6 (≈ 58.4 µM)
57 | Nc1nc2cc(S(=O)(=O)N3CCOCC3)ccc2o1 | > 42.5
58 | Cc1c(C(=O)N2CCC[C@H]2C(N)=O)oc2c(F)cccc12 | 38.1 (≈ 131 µM)
59 | COC(=O)c1ccc(NC(=O)c2cccc(NC(=O)c3ccco3)c2)cc1 | < 0.4
